Laboratory results as given in US20080051429A1, “USE OF 4-AMINO-PIPERIDINES FOR TREATING SLEEP DISORDERS” (priority 2006, published 2008).

What was measured:
Assay in all cases: R-SAT broad profiling
Type in all cases: cell-based
alpha 1B = target: T1, alpha 1B (Mesocricetus auratus, UniProt P18841); details: read-out: pEC50 or pIC50 (converted)
T1 construct: expressed in transfected cells; host or cells: NIH3T3
Procedure: (§1) The functional receptor assay, Receptor Selection and Amplification Technology (R-SAT), was used (with minor modifications from that previously described U.S. Pat. No. 5,707,798) to screen compounds for efficacy at the 5-HT2A receptor. Briefly, NIH3T3 cells were grown in 96 well tissue culture plates to 70-80% confluence. Cells were transfected for 12-16 hours with plasmid DNAs using superfect (Qiagen Inc.) as per manufacture's protocols. R-SAT's were generally performed with 50 ng/well of receptor and 20 ng/well of Beta-galactosidase plasmid DNA. All receptor and G-protein constructs used were in the pSI mammalian expression vector (Promega Inc) as described in U.S. Pat. No. 5,707,798. The 5HT2A receptor gene was amplified by nested PCR from brain cDNA using the oligodeoxynucleotides based on the published sequence (see Saltzman et. al. Biochem. Biophys. Res. Comm. 181:1469-78 (1991)). Large-scale transfections, cells were transfected for 12-16 hours, then trypsinized and frozen in DMSO. Frozen cells were later thawed, plated at 10,000-40,000 cells per well of a 96 well plate that contained drug. With both methods, cells were then grown in a humidified atmosphere with 5% ambient CO2 for five days. Media was then removed from the plates and marker gene activity was measured by the addition of the beta-galactosidase substrate ONPG (in PBS with 5% NP-40). The resulting colorimetric reaction was measured in a spectrophotometric plate reader (Titertek Inc.)at […]. All data were analyzed using the computer program XLFit (IDBSm). Efficacy is the percent maximal repression compared to repression by a control compound (ritanserin in the case of 5HT2A). pIC50 is the negative of the log(IC50), where IC50 is the calculated concentration in Molar that produces 50% maximal repression.
(§2) The R-SAT assay (described above in example 289) was used to investigate the selectivity of 4-(4-Fluoro-benzyl)-3-(4-isobutoxy-benzyl)-8-methyl-1-oxa-3,8-diaza-spiro[4.5]decan-2-one.

alpha 2A = target: T2, alpha 2A (Homo sapiens, UniProt P08913); details: agonist; read-out: pEC50 or pIC50 (converted)
T2 construct: expressed in transfected cells; host or cells: NIH3T3
T2 sequence (P08913 1-465): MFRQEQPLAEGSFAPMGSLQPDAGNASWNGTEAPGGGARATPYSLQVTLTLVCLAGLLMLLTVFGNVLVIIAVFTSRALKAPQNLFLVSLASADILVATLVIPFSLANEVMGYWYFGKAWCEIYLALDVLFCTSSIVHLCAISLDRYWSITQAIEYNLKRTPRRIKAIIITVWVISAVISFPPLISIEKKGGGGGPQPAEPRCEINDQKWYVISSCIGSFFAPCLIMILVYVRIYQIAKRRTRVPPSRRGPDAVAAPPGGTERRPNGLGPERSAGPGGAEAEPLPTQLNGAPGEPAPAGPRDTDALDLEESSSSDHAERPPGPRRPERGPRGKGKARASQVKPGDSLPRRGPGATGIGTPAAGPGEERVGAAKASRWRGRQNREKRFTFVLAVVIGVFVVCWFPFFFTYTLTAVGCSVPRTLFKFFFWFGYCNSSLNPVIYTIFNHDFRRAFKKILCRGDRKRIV
Procedure: as §1, §2

alpha 2C = target: T3, alpha 2C (Homo sapiens, UniProt P18825); details: read-out: pEC50 or pIC50 (converted)
T3 construct: expressed in transfected cells; host or cells: NIH3T3
T3 sequence (P18825 1-462): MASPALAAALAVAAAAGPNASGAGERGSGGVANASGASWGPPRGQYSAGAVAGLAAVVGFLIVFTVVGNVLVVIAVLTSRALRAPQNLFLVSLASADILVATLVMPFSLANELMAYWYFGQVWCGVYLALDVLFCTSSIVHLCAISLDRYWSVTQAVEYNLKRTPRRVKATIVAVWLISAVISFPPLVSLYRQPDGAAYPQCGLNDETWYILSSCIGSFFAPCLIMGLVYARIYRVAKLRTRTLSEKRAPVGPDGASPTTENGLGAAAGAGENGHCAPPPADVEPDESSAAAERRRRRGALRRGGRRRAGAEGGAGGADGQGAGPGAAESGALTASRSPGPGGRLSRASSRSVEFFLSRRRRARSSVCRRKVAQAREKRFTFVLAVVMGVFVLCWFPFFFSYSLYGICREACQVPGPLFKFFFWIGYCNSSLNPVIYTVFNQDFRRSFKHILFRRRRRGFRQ
Procedure: as §1, §2

m2 = target: T4, m2 (Homo sapiens, UniProt P08172); details: agonist; read-out: pEC50 or pIC50 (converted)
T4 construct: expressed in transfected cells; host or cells: NIH3T3
T4 sequence (P08172 1-466): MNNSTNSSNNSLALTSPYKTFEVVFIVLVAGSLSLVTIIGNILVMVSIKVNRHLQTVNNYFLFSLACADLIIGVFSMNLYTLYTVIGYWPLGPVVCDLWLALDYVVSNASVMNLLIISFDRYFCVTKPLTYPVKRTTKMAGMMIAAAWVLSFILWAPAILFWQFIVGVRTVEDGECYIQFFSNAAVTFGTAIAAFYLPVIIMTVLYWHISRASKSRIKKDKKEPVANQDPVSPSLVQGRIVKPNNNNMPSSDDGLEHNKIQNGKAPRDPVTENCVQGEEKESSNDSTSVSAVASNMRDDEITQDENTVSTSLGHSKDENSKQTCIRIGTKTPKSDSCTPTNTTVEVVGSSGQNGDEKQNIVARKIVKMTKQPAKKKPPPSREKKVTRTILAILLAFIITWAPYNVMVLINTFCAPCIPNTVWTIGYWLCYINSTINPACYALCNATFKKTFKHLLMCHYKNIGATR
Procedure: as §1, §2

m5 = target: T5, m5 (Homo sapiens, UniProt P08912); details: agonist; read-out: pEC50 or pIC50 (converted)
T5 construct: expressed in transfected cells; host or cells: NIH3T3
T5 sequence (P08912 1-532): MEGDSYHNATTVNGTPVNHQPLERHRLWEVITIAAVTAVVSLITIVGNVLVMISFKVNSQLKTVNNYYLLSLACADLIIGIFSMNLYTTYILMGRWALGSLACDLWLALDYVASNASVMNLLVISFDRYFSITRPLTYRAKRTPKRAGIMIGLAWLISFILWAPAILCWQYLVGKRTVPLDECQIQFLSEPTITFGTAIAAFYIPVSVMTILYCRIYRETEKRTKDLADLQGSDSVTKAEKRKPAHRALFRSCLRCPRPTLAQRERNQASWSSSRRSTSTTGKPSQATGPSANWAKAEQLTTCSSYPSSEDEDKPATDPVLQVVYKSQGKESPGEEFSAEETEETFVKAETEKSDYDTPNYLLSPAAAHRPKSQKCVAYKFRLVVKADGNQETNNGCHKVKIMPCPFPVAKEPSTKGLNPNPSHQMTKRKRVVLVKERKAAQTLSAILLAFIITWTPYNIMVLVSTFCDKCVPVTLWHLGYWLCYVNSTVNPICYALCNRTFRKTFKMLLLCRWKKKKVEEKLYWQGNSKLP
Procedure: as §1, §2

oprk 1 = target: T6, oprk 1 (Homo sapiens, UniProt P41145); details: read-out: pEC50 or pIC50 (converted)
T6 construct: expressed in transfected cells; host or cells: NIH3T3
T6 sequence (P41145 whole entry): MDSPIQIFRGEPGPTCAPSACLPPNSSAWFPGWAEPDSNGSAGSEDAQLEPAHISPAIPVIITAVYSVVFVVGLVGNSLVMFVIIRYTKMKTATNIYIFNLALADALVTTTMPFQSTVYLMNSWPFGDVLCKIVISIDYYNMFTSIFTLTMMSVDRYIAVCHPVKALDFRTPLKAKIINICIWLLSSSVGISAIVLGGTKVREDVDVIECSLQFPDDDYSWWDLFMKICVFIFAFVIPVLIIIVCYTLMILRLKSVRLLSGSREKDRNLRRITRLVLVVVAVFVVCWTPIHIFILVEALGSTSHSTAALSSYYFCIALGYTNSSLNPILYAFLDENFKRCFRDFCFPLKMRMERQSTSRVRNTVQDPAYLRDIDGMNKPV
Procedure: as §1, §2

T1 sequence (P18841 whole entry): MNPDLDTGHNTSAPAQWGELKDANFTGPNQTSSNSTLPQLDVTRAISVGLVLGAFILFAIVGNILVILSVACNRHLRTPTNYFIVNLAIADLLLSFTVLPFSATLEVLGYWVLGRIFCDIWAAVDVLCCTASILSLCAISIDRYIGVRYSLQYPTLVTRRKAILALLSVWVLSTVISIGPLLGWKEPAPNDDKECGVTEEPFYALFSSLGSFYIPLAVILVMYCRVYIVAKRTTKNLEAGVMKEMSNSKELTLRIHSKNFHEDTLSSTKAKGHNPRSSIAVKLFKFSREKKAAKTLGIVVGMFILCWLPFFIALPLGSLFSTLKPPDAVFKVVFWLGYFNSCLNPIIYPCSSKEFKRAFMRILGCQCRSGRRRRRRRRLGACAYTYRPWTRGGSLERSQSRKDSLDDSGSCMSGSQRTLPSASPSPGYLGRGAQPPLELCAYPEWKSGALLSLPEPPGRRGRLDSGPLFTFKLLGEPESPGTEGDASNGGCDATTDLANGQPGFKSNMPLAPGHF

CC(C)COc1ccc(CN2C(=O)OC3(CCN(C)CC3)C2Cc2ccc(F)cc2)cc1.Cl (racemic) [Example 69NLS75, 4-(4-Fluorobenzyl)-3-(4-isobutoxybenzyl)-8-methyl-1-oxa-3,8-diazaspiro[4.5]decan-2-one, hydrochloride]
> 3.16 µM: EC50 (alpha 1B; agonist) | IC50 (alpha 1B; antagonist) | EC50 (alpha 2A) | EC50 (alpha 2C; agonist) | IC50 (alpha 2C; antagonist) | EC50 (m2) | EC50 (m5) | EC50 (oprk 1; agonist) | IC50 (oprk 1; antagonist)
